Data: PMC7672604, “Design, Synthesis, Molecular Docking, Antiapoptotic and Caspase-3 Inhibition of New 1,2,3-Triazole/Bis-2(1H)-Quinolinone Hybrids” (Molecules, 2020)

Tests used:
[1] = system: testis of I/R rats; test: Testicular histopathology (H&E, Cosentino's score, Johnson's scoring) in I/R rats; assay type: in vivo; details: for Histopathological finding in testis sections: H&E sections; for Histopathological/spermatogenesis scoring difference compared to the reference (NAC): Cosentino's score and Johnson's scoring, p-value < 0.005
Text: Also, it decreased spermatogenesis when compared to the control group by using Johnson’s scoring system (Figure 9B).
The seminiferous tubules were seen lined with stratified testicular epithelium rested on basement membranes. […] Ruptured tubules and distorted Leydig cells and sloughed cells could be also observed (Figure 10B). […] Distorted Leydig cells with dilated blood vessels (BV) were frequently seen among the sections (Figure 12). […] Dilated blood vessels and the presence of amyloid substance were also found (Figure 13).
Multiple testicular specimens were stained by hematoxylin-eosin (ab245880, Abcam, Cambridge, MA, USA) using Cosentino’s score for semi-quantitation of pathological changes in different seminiferous tubules. By using Johnson’s scoring system, the effect of ischemia on the spermatogenesis can be studied (See Supporting Materials).
Semi-quantitative data were measured and counted per section in ten randomly selected non-overlapping fields using power × 400 magnifications of the sections from each rat. The results were carried out using the Image J program analysis software (Image J 1.48V, Maryland, MD, USA; Wayne Rasb and National Institutes of Health). […]
4. Histopathological Investigation
Multiple testicular specimens were fixed in Bouin's solution for about 24 hour, dehydrated in an alcohol grades, cleaned with xylene and then embedded in paraffin wax. Tissue sections (about six μm) were stained by haematoxylin–eosin (H&E) and were studied by an experienced histologist. In the current study, we used Cosentino's score for semi-quantitation of pathological changes on different seminiferous tubules in the whole groups by grading these tubules between one and four, and the mean scores were taken by dividing the totality to the whole number of testicular tubules .
By using Johnson’s scoring system, the effect of ischemia on the spermatogenesis can be studied.
The grades were counted one to ten, and the total scores were taken by dividing the totality to the whole number of testicular tubules.
4.2.Histopathological grading score (Cosentino's score)
I Normal testicular structure
II less orderly germinal cells with closely packed seminiferous tubules III Anarchic sloughed germinal cells, with less pyknotic nuclei size and less distinct seminiferous […]
IV Closely packed seminiferous tubules and coagulative necrosis
Note: Semi-quantitation of pathological changes on different seminiferous tubules in the whole groups by grading the tubules between 1 and 4, and the mean scores were obtained by dividing the totality to the whole number of testicular tubules.
4.3.Spermatogenesis grading; Score Morphological picture
10 Normal spermatogenesis
9 less defect in spermatogenesis with multiple late spermatids, little disorganized epithelium 8 Less than five spermatozoa/tubule, less late spermatids
7 Absence of spermatozoa, absent late spermatids, more early spermatids 6 No spermatozoa, absence of late spermatids with little early spermatids 5 No spermatozoa or spermatids, more spermatocytes
4 No spermatozoa or spermatids, fewer spermatocytes
2 No germinal cells, only Sertoli cells
1 No seminiferous epithelium
Note: By using Johnsen's scoring system, the effect of ischaemia on the spermatogenesis can be detected. The grades were from 1 to 10, and the total scores were taken by dividing to the whole number of testicular tubules.

[2] = system: testis of I/R rats; test: Testicular testosterone in testis of I/R rats (ELISA); assay type: in vivo; set-up: unit not given here; details: i.p. 1 h before ischemia, dose equivalent to 30 mg NAC, mean ± S.E.M, n=6
Description: This section describes the methods used in the investigation of the antiapoptotic effect of the novel compounds 6a–g then supported by further histological and molecular docking studies. The antiapoptotic effect of 6a–g was evaluated through evaluation of decreasing tissue damage induced by I/R in the testis of rats in a dose equivalent to 30 mg N-acetylcysteine (NAC) as an antiapoptotic reference. The rats were subdivided into sham, I/R, NAC and treated with tested compounds groups, each group comprises of 6 rats (weighing 140–150 g). The targeted compounds 6a–g were administrated intra-peritoneal (i.p.) an hour before ischemia, which lasted for (0.5 h) then reperfusion (1 h) followed by cutting the organ (Figure 5). Different biomarkers concentrations were measured in serum to detect testis injury due to ischemia/reperfusion (I/R).
It was reported that excessive apoptosis in the testis could damage the Leydig cells and apparent decline in serum testosterone levels. Furthermore, excessive apoptosis of Leydig cells results in decreased testosterone. The assays of the apoptotic biomarkers (testicular testosterone and TNFα) were done in comparison with the sham and NAC treated group and the results were outlined in Table S4 (Supplementary Materials).
TNF-α was measured by ELISA kit (Elabscience, Houston, TX, USA). Caspase-3 was measured by ELISA kit Cusabio, Houston, TX, USA (See Supplementary Materials). Testosterone concentration in testicular samples was determined by the ELISA kit (“DRG”, Marburg, Germany) (See Supplementary Materials).
1.2.Determination of serum testosterone using ELISA kit
This ELISA kit uses the Competitive-ELISA principle. The micro ELISA plate provided in this kit has been pre-coated with T. During the reaction, T in the sample or standard competes with a fixed amount of T on the solid phase supporter for sites on the Biotinylated Detection Ab specific to T. Excess conjugate and unbound sample or standard are washed from the plate, and Avidin conjugated to Horseradish Peroxidase (HRP) are added to each microplate well and incubated. Then a TMB substrate solution is added to each well. The enzyme-substrate reaction is terminated by the addition of stop solution and the color change is measured spectrophotometrically at a wavelength of 450 nm ± 2 nm. The concentration of T in the samples is then determined by comparing the OD of the samples to the standard […]
Serum: Allow samples to clot for 2 hours at room temperature or overnight at 4℃ before centrifugation for 20 min at 1000×g at 2-8℃. Collect the supernatant to carry out the assay. Blood collection tubes should be disposable and be non-endotoxin. […]
1. Bring all reagents to room temperature (18~25℃) before use. Follow the Microplate reader manual for set-up and preheat it for 15 min before OD measurement.
2. Wash Buffer: Dilute 30 mL of Concentrated Wash Buffer with 720 mL of deionized or distilled water to prepare 750 mL of Wash Buffer. Note: if crystals have formed in the concentrate, warm it in a 40℃ water-bath and mix it gently until the crystals have completely dissolved.
3. Standard working solution: Centrifuge the standard at 10,000×g for 1min. Add 1.0mL of Reference Standard &Sample Diluent, let it stand for 10min and invert it gently several times. After it dissolves fully, mix it thoroughly with a pipette. This reconstitution produces a working solution of 20 ng/mL. Then make serial dilutions as needed. The recommended dilution gradient is as […]
Dilution method: Take 7 EP tubes, add 500uL of Reference Standard & Sample Diluent to each tube. Pipette 500uL of the 20 ng/mL working solution to the first tube and mix up to produce a 10 ng/mL working solution. Pipette 500uL of the solution from the former tube to the latter one according to this step. The illustration below is for reference. Note: the last tube is regarded as a blank. Don’t pipette solution into it from the former tube.

Compound | Histopathological finding in testis sections [1] | Testicular testosterone [2] | Histopathological/spermatogenesis scoring difference compared to the reference (NAC) [1]
CC(=O)N[C@@H](CS)C(=O)O [NAC, N-acetylcysteine, reference compound] | more or less normal seminiferous tubules and Leydig cells except some areas displayed distorted tubules and widening of inter-tubular spaces | – | –
COc1ccc2[nH]c(=O)cc(-n3cc(COc4cc(=O)[nH]c5ccccc45)nn3)c2c1 [6c, 6-Methoxy-4-(4-(((2-oxo-1,2-dihydroquinolin-4-yl)oxy)methyl)-1H-1,2,3-triazol-1-yl)-quinolin-2(1H)-one] | – | 5.00±0.26 | –
Cc1ccc2[nH]c(=O)cc(OCc3cn(-c4cc(=O)[nH]c5ccc(C)cc45)nn3)c2c1 [6f, 6-Methyl-4-((1-(6-methyl-2-oxo-1,2-dihydroquinolin-4-yl)-1H-1,2,3-triazol-4-yl)meth-oxy)quinolin-2(1H)-one] | ruptured seminiferous tubules with distorted Leydig cells | 1.83±0.14 | highly significant histopathological difference
COc1ccc2[nH]c(=O)cc(OCc3cn(-c4cc(=O)[nH]c5ccccc45)nn3)c2c1 [6g, 6-Methoxy-4-((1-(2-oxo-1,2-dihydroquinolin-4-yl)-1H-1,2,3-triazol-4-yl)methoxy)quinolin-2-(1H)-one] | dilated seminiferous tubules | 3.45±0.22 | weak significant differences
Cc1ccc2[nH]c(=O)cc(OCc3cn(-c4cc(=O)[nH]c5ccccc45)nn3)c2c1 [6e, 6-Methyl-4-((1-(2-oxo-1,2-dihydroquinolin-4-yl)-1H-1,2,3-triazol-4-yl)methoxy)quinolin-2(1H)-one] | dilated seminiferous tubules | 3.62±0.17 | weak significant differences
Cn1c(=O)cc(-n2cc(COc3cc(=O)[nH]c4ccccc34)nn2)c2ccccc21 [6d, 1-Methyl-4-(4-(((2-oxo-1,2-dihydroquinolin-4-yl)oxy)methyl)-1H-1,2,3-triazol-1-yl)quinolin-2(1H)-one] | ruptured seminiferous tubules with distorted Leydig cells | 2.67±0.25 | highly significant histopathological difference
